Assay results taken from patent US9862713B2, “Substituted bicyclic heteroaryl compounds as RXR agonists” (CONNEXIOS LIFE SCIENCES PVT. LTD., priority 2014, dated 2018).

System: hRXR α, β, or γ
Experiment: Transactivation assay (RARE-Luc dual luciferase reporter in HEK-293 cells), activity relative to LG268
Type: cell-based, human
Details: compound at 300 nM, 24 h; luciferase activity expressed relative to LG268
Procedure, shortened: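 HEK-293 cells co-transfected with hRXR α, β or γ expression vector, RARE-firefly luciferase and renilla luciferase; 24 h later treated with agonist (100 nM, 300 nM, 1 uM) for 24 h. Firefly signal normalized to renilla; activity expressed relative to the RXR agonist LG268.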

Structure (SMILES)	Activity at 300 nM
Cc1c(N(CC(C)C)c2ccc(C(=O)O)c(OCC3CC3)c2)sc2c1C(C)(C)CCC2(C)C [Compound 55, 2-(cyclopropylmethoxy)-4-[(2-methylpropyl) (3,4,4,7,7-pentamethyl-4,5,6,7-tetrahydro-1-benzothiophen-2-yl)amino]benzoic acid]	*** (>0.4 and <0.5)
C#CCOc1cc(N(CC(C)C)c2sc3c(c2C)C(C)(C)CCC3(C)C)ccc1C(=O)O [Compound 56, 4-[(2-methylpropyl) (3,4,4,7,7-pentamethyl-4,5,6,7-tetrahydro-1-benzothiophen-2-yl)amino]-2-(prop-2-yn-1-yloxy)benzoic acid]	*** (>0.4 and <0.5)
Cc1c(N(CC(C)C)c2ccc(C(=O)O)c(Oc3ccccc3)c2)sc2c1C(C)(C)CCC2(C)C [Compound 57, 4-[(2-methylpropyl) (3,4,4,7,7-pentamethyl-4,5,6,7-tetrahydro-1-benzothiophen-2-yl)amino]-2-phenoxybenzoic acid]	***** (>0.6)
Cc1cc(N(CC(C)C)c2nc3c(s2)C(C)(C)CCC3(C)C)ccc1C(=O)O [Compound 58, 2-methyl-4-[(2-methylpropyl) (4,4,7,7-tetramethyl-4,5,6,7-tetrahydro-1,3-benzothiazol-2-yl)amino]benzoic acid]	*** (>0.4 and <0.5)
Cc1cc(N(CC2CC2)c2nc3c(s2)C(C)(C)CCC3(C)C)ccc1C(=O)O [Compound 59, 4-[(cyclopropylmethyl) (4,4,7,7-tetramethyl-4,5,6,7-tetrahydro-1,3-benzothiazol-2-yl)amino]-2-methylbenzoic acid]	** (>0.3 and <0.4)
Cc1cc(C(=O)O)ccc1N(CC1CC1)c1nc2c(s1)C(C)(C)CCC2(C)C [Compound 60, 4-[(cyclopropylmethyl) (4,4,7,7-tetramethyl-4,5,6,7-tetrahydro-1,3-benzothiazol-2-yl)amino]-3-methylbenzoic acid]	** (>0.3 and <0.4)
Cc1cc(C(=O)O)ccc1N(CC(C)C)c1nc2c(s1)C(C)(C)CCC2(C)C [Compound 61, 3-methyl-4-[(2-methylpropyl) (4,4,7,7-tetramethyl-4,5,6,7-tetrahydro-1,3-benzothiazol-2-yl)amino]benzoic acid]	**** (>0.5 to <0.6)
C=CCN(c1ccc(C(=O)O)cc1)c1nc2c(s1)C(C)(C)CCC2(C)C [Compound 62, 4-[prop-2-en-1-yl(4,4,7,7-tetramethyl-4,5,6,7-tetrahydro-1,3-benzothiazol-2-yl)amino]benzoic acid]	***** (>0.6)
CC1(C)CCC(C)(C)c2sc(N(c3ccc(C(=O)O)cc3)c3ccc(C(=O)O)o3)nc21 [Compound 63, 5-[(4-carboxyphenyl) (4,4,7,7-tetramethyl-4,5,6,7-tetrahydro-1,3-benzothiazol-2-yl)amino]furan-2-carboxylic acid]	*** (>0.4 and <0.5)
CC(C)CN(c1ccc(C(=O)O)cn1)c1nc2c(s1)C(C)(C)CCC2(C)C [Compound 64, 6-[(2-methylpropyl) (4,4,7,7-tetramethyl-4,5,6,7-tetrahydro-1,3-benzothiazol-2-yl)amino]pyridine-3-carboxylic acid]	***** (>0.6)
CCCN(c1ccc(C(=O)O)cn1)c1nc2c(s1)C(C)(C)CCC2(C)C [Compound 65, 6-[propyl(4,4,7,7-tetramethyl-4,5,6,7-tetrahydro-1,3-benzothiazol-2-yl)amino]pyridine-3-carboxylic acid]	***** (>0.6)
CC1(C)CCC(C)(C)c2sc(N(Cc3ccccc3)c3ccc(C(=O)O)cn3)nc21 [Compound 66, 6-[benzyl(4,4,7,7-tetramethyl-4,5,6,7-tetrahydro-1,3-benzothiazol-2-yl)amino]pyridine-3-carboxylic acid]	***** (>0.6)
CC(C)CN(c1ccc(C(=O)O)nc1)c1nc2c(s1)C(C)(C)CCC2(C)C [Compound 67, 5-[(2-methylpropyl) (4,4,7,7-tetramethyl-4,5,6,7-tetrahydro-1,3-benzothiazol-2-yl)amino]pyridine-2-carboxylic acid]	* (<0.3)
CC1(C)CCC(C)(C)c2sc(N(CC3CC3)c3ncc(C(=O)O)cc3Cl)nc21 [Compound 68]	* (<0.3)
CC(C)CN(c1nc2c(s1)C(C)(C)CCC2(C)C)c1ncc(C(=O)O)cc1Cl [Compound 69, 5-chloro-6-[(2-methylpropyl) (4,4,7,7-tetramethyl-4,5,6,7-tetrahydro-1,3-benzothiazol-2-yl)amino]pyridine-3-carboxylic acid]	* (<0.3)
CC1(C)CCC(C)(C)c2sc(N(CC3CC3)c3cc(Cl)c(C(=O)O)cn3)nc21 [Compound 70, 4-chloro-6-[(cyclopropylmethyl) (4,4,7,7-tetramethyl-4,5,6,7-tetrahydro-1,3-benzothiazol-2-yl)amino]pyridine-3-carboxylic acid]	***** (>0.6)
COc1cc(C(=O)O)ccc1N(CC1CC1)c1nc2c(s1)C(C)(C)CCC2(C)C [Compound 71, 4-[(cyclopropylmethyl) (4,4,7,7-tetramethyl-4,5,6,7-tetrahydro-1,3-benzothiazol-2-yl)amino]-3-methoxybenzoic acid]	* (<0.3)
COc1cc(N(CC2CC2)c2nc3c(s2)C(C)(C)CCC3(C)C)ccc1C(=O)O [Compound 72]	* (<0.3)
COc1cc(N(CC(C)C)c2nc3c(s2)C(C)(C)CCC3(C)C)ccc1C(=O)O [Compound 73, 2-methoxy-4-[(2-methylpropyl) (4,4,7,7-tetramethyl-4,5,6,7-tetrahydro-1,3-benzothiazol-2-yl)amino]benzoic acid]	** (>0.3 and <0.4)
Cc1c(N(CC(C)C)c2ccc(C(=O)O)c(N)c2)sc2c1C(C)(C)CCC2(C)C [Compound 79, 2-amino-4-[(2-methylpropyl) (3,4,4,7,7-pentamethyl-4,5,6,7-tetrahydro-1-benzothiophen-2-yl)amino]benzoic acid]	***** (>0.6)
CCCS(=O)(=O)Nc1cc(N(CC(C)C)c2sc3c(c2C)C(C)(C)CCC3(C)C)ccc1C(=O)O [Compound 80, 4-[(2-methylpropyl) (3,4,4,7,7-pentamethyl-4,5,6,7-tetrahydro-1-benzothiophen-2-yl)amino]-2-[(propylsulfonyl)amino]benzoic acid]	*** (>0.4 and <0.5)
CCCN(c1ccc(C(=O)O)cn1)c1nc2c(s1)C(C)(C)C=CC2(C)C [Compound 81, 6-[propyl(4,4,7,7-tetramethyl-4,7-dihydro-1,3-benzothiazol-2-yl)amino]pyridine-3-carboxylic acid]	***** (>0.6)
CC(C)CN(c1ccc(C(=O)O)cn1)c1nc2c(s1)C(C)(C)C=CC2(C)C [Compound 82, 6-[(2-methylpropyl) (4,4,7,7-tetramethyl-4,7-dihydro-1,3-benzothiazol-2-yl)amino]pyridine-3-carboxylic acid]	***** (>0.6)
CC(C)CN(c1ccc(C(=O)O)cc1)c1nc2c(s1)C(C)(C)C=CC2(C)C [Compound 83, 4-[(2-methylpropyl) (4,4,7,7-tetramethyl-4,7-dihydro-1,3-benzothiazol-2-yl)amino]benzoic acid]	* (<0.3)
